Test results taken from DBAASP.
In brackets after ≈: the same amount, converted by molar mass. Several values for one entry are separate records, joined by “and”; a condition that tells them apart may be missing. Identical values can stand only once.

Experiments:
Experiment in all cases: ≥ marks a high value that may be exact or a test limit, other limits are often not marked, values filed in µg/mL are converted to µM
[1] = system: Staphylococcus aureus ATCC 33591
[2] = system: Escherichia coli ATCC 25922
[3] = system: Pseudomonas aeruginosa PAO1
[4] = system: Klebsiella pneumoniae ATCC 13883
[5] = system: Staphylococcus aureus USA 300
Staphylococcus aureus = system: Staphylococcus aureus
Bacillus subtilis = system: Bacillus subtilis
Salmonella typhimurium = system: Salmonella typhimurium
Escherichia coli = system: Escherichia coli
[6] = system: Staphylococcus epidermidis KCTC 1917
[7] = system: Pseudomonas aeruginosa KCTC 1637
[8] = system: Bacillus subtilis KCTC 3068
[9] = system: Escherichia coli KCTC 1682
[10] = system: Staphylococcus aureus KCTC 1621
[11] = system: Salmonella typhimurium KCTC 1926
[12] = system: Salmonella enterica subsp. enterica serovar Typhimurium ATCC 14028
[13] = system: Acinetobacter baumannii ATCC 19606
[14] = system: Staphylococcus aureus ATCC 25923
Klebsiella pneumoniae = system: Klebsiella pneumoniae
Acinetobacter baumannii = system: Acinetobacter baumannii

CSCC[C@H](NC(=O)[C@H](CCCN=C(N)N)NC(=O)[C@H](CCCN=C(N)N)NC(=O)[C@H](CC(N)=O)NC(=O)[C@H](CCC(N)=O)NC(=O)[C@@H](N)Cc1ccccc1)C(=O)N[C@@H](CCCCN)C(=O)N[C@@H](Cc1c[nH]c2ccccc12)C(=O)N[C@@H](CCCCN)C(=O)N[C@@H](CCCCN)C(N)=O [FQNRRMKWKK]
MIC [1]: ≥ 256 µM
MIC [2]: > 256 µM

CC(C)C[C@H](NC(=O)[C@H](CC(C)C)NC(=O)[C@H](CCCCN)NC(=O)CNC(=O)[C@H](CC(C)C)NC(=O)[C@H](CC(C)C)NC(=O)[C@H](CC(C)C)NC(=O)[C@H](CC(C)C)NC(=O)[C@H](CO)NC(=O)[C@H](CO)NC(=O)[C@H](CC(C)C)NC(=O)[C@H](CC(C)C)NC(=O)CN)C(N)=O [GLLSSLLLLGKLL]
MIC [3]: > 25 µM
MIC [2]: > 25 µM
MIC [4]: 25 µM (≈ 33.5 µg/mL)
MIC [5]: 3.1 µM (≈ 4.15 µg/mL)

CC[C@H](C)[C@H](NC(=O)[C@H](CCCN=C(N)N)NC(=O)[C@@H](NC(=O)[C@@H](NC(=O)[C@@H](NC(=O)CN)C(C)C)C(C)C)C(C)C)C(=O)NCC(=O)N[C@@H](CCCN=C(N)N)C(=O)N[C@H](C(=O)N[C@H](C(=O)N[C@H](C(=O)N[C@@H](CCCN=C(N)N)C(=O)NCC(=O)N[C@H](C(=O)N[C@@H](CCCN=C(N)N)C(=O)N[C@@H](CCCN=C(N)N)C(N)=O)C(C)C)C(C)C)[C@@H](C)CC)C(C)C [GVVVRIGRVIVRGVRR]
MIC (Staphylococcus aureus): 8 µM (≈ 14.3 µg/mL)
MIC (Bacillus subtilis): 4 µM (≈ 7.16 µg/mL)
MIC (Salmonella typhimurium): 4 µM (≈ 7.16 µg/mL)
MIC (Escherichia coli): 8 µM (≈ 14.3 µg/mL)

CC[C@H](C)[C@H](N)C(=O)NCC(=O)N[C@@H](CCCCN)C(=O)N[C@@H](CC(C)C)C(=O)N[C@@H](Cc1ccccc1)C(=O)N[C@@H](CCCCN)C(=O)N[C@@H](CCCN=C(N)N)C(=O)N[C@H](C(=O)N[C@H](C(=O)N[C@@H](CCCCN)C(=O)N[C@@H](CCCN=C(N)N)C(=O)N[C@H](C(=O)N[C@@H](CC(C)C)C(=O)N[C@@H](CCCCN)C(=O)N[C@@H](Cc1ccccc1)C(=O)N[C@@H](CC(C)C)C(=O)N[C@@H](CCCN=C(N)N)C(=O)N[C@@H](CCCCN)C(=O)N[C@@H](CC(C)C)C(=O)O)[C@@H](C)CC)C(C)C)[C@@H](C)CC [IGKLFKRIVKRILKFLRKL]
MIC [6]: 4 µM (≈ 9.48 µg/mL)
MIC [7]: 8 µM (≈ 19 µg/mL)
MIC [8]: 2 µM (≈ 4.74 µg/mL)
MIC [9]: 8 µM (≈ 19 µg/mL)
MIC [10]: 4 µM (≈ 9.48 µg/mL)
MIC [11]: 4 µM (≈ 9.48 µg/mL)

CC(C)C[C@H](NC(=O)[C@H](CC(C)C)NC(=O)[C@H](CCCCN)NC(=O)[C@H](CC(C)C)NC(=O)CNC(=O)[C@H](CC(C)C)NC(=O)[C@H](CO)NC(=O)[C@H](CC(C)C)NC(=O)[C@H](CC(C)C)NC(=O)[C@H](CO)NC(=O)CNC(=O)[C@H](CC(C)C)NC(=O)[C@@H](N)CC(C)C)C(N)=O [LLGSLLSLGLKLL]
MIC [3]: > 25 µM
MIC [2]: > 25 µM
MIC [4]: 25 µM (≈ 33.5 µg/mL)
MIC [5]: 1.6 µM (≈ 2.14 µg/mL)

CC[C@H](C)[C@H](NC(=O)[C@H](CC(C)C)NC(=O)[C@@H](N)CC(C)C)C(=O)N[C@H](C(=O)N[C@@H](CC(C)C)C(=O)N[C@@H](CCCCN)C(=O)N[C@@H](CCCCN)C(=O)N[C@@H](CCCCN)C(=O)N[C@@H](Cc1c[nH]c2ccccc12)C(=O)N[C@@H](CCCCN)C(=O)N[C@@H](CCCCN)C(=O)N[C@@H](CCC(N)=O)C(=O)N[C@@H](C)C(=O)N[C@@H](CCCCN)C(=O)N[C@@H](C)C(=O)N[C@@H](CCCCN)C(=O)N[C@@H](CO)C(=O)N[C@@H](CCCCN)C(N)=O)[C@@H](C)CC [LLIILKKKWKKQAKAKSK]
MIC [6]: 8 µM (≈ 17.2 µg/mL)
MIC [7]: 8 µM (≈ 17.2 µg/mL)
MIC [8]: 4 µM (≈ 8.61 µg/mL)
MIC [9]: 8 µM (≈ 17.2 µg/mL)
MIC [10]: 4 µM (≈ 8.61 µg/mL)
MIC [11]: 4 µM (≈ 8.61 µg/mL)

CC[C@H](C)[C@H](NC(=O)[C@H](CC(C)C)NC(=O)[C@@H](N)CC(C)C)C(=O)N[C@H](C(=O)N[C@@H](CC(C)C)C(=O)N[C@@H](CCCN=C(N)N)C(=O)N[C@@H](CCCN=C(N)N)C(=O)N[C@@H](CCCN=C(N)N)C(=O)N[C@@H](Cc1c[nH]c2ccccc12)C(=O)N[C@@H](CCCN=C(N)N)C(=O)N[C@@H](CCCCN)C(=O)N[C@@H](CCC(N)=O)C(=O)N[C@@H](C)C(=O)N[C@@H](CCCN=C(N)N)C(=O)N[C@@H](C)C(=O)N[C@@H](CCCN=C(N)N)C(=O)N[C@@H](CO)C(=O)N[C@@H](CCCCN)C(N)=O)[C@@H](C)CC [LLIILRRRWRKQARARSK]
MIC [6]: 8 µM (≈ 18.6 µg/mL)
MIC [7]: 8 µM (≈ 18.6 µg/mL)
MIC [8]: 4 µM (≈ 9.28 µg/mL)
MIC [9]: 8 µM (≈ 18.6 µg/mL)
MIC [10]: 4 µM (≈ 9.28 µg/mL)
MIC [11]: 4 µM (≈ 9.28 µg/mL)

CC[C@H](C)[C@H](NC(=O)[C@H](CC(C)C)NC(=O)[C@@H](N)CC(C)C)C(=O)N[C@H](C(=O)N[C@@H](CC(C)C)C(=O)N[C@@H](CCCN=C(N)N)C(=O)N[C@@H](CCCN=C(N)N)C(=O)N[C@@H](CCCN=C(N)N)C(=O)N[C@@H](Cc1c[nH]c2ccccc12)C(=O)N[C@@H](CCCN=C(N)N)C(=O)N[C@@H](CCCN=C(N)N)C(=O)N[C@@H](CCC(N)=O)C(=O)N[C@@H](C)C(=O)N[C@@H](CCCN=C(N)N)C(=O)N[C@@H](C)C(=O)N[C@@H](CCCN=C(N)N)C(=O)N[C@@H](CO)C(=O)N[C@@H](CCCN=C(N)N)C(N)=O)[C@@H](C)CC [LLIILRRRWRRQARARSR]
MIC [6]: 8 µM (≈ 19 µg/mL)
MIC [7]: 8 µM (≈ 19 µg/mL)
MIC [8]: 4 µM (≈ 9.5 µg/mL)
MIC [9]: 8 µM (≈ 19 µg/mL)
MIC [10]: 4 µM (≈ 9.5 µg/mL)
MIC [11]: 4 µM (≈ 9.5 µg/mL)

CC(C)C[C@H](NC(=O)[C@H](CCCN=C(N)N)NC(=O)[C@H](CCCN=C(N)N)NC(=O)[C@H](C)NC(=O)[C@H](Cc1c[nH]c2ccccc12)NC(=O)CNC(=O)[C@H](CCCN=C(N)N)NC(=O)[C@@H](N)CCCN=C(N)N)C(=O)N[C@@H](C)C(=O)N[C@@H](Cc1ccccc1)C(=O)N[C@@H](C)C(=O)N[C@@H](Cc1ccccc1)C(=O)N[C@@H](C)C(=O)N[C@@H](Cc1ccccc1)C(=O)NCC(=O)N[C@@H](CCCN=C(N)N)C(=O)N[C@@H](CCCN=C(N)N)C(N)=O [RRGWARRLAFAFAFGRR]
MIC [3]: 2.5 µM and 5.2 µM
MIC [12]: 1.5 µM (≈ 3.14 µg/mL)
MIC [13]: 6.2 µM (≈ 13 µg/mL)
MIC [4]: 2.6 µM (≈ 5.44 µg/mL)
MIC [14]: 26.3 µM and 30 µM

CC(C)C[C@H](NC(=O)[C@H](CCCN=C(N)N)NC(=O)[C@H](CCCN=C(N)N)NC(=O)[C@H](C)NC(=O)[C@H](Cc1c[nH]c2ccccc12)NC(=O)CNC(=O)[C@H](CCCN=C(N)N)NC(=O)[C@@H](N)CCCN=C(N)N)C(=O)N[C@H](C(=O)N[C@@H](Cc1ccccc1)C(=O)N[C@@H](C)C(=O)N[C@@H](Cc1ccccc1)C(=O)NCC(=O)N[C@@H](CCCN=C(N)N)C(=O)N[C@@H](CCCN=C(N)N)C(N)=O)C(C)C [RRGWARRLVFAFGRR]
MIC (Klebsiella pneumoniae): 1.3 µM (≈ 2.47 µg/mL)
MIC [2]: 15.1 µM and 26.6 µM
MIC [4]: 30 µM (≈ 57.1 µg/mL)
MIC (Acinetobacter baumannii): 3.2 µM (≈ 6.09 µg/mL)
MIC [14]: > 30 µM

CC[C@H](C)[C@H](NC(=O)[C@H](Cc1c[nH]c2ccccc12)NC(=O)[C@H](CCCN=C(N)N)NC(=O)[C@@H](NC(=O)[C@@H](NC(=O)[C@H](CCCN=C(N)N)NC(=O)[C@H](CCCCN)NC(=O)[C@@H](N)Cc1c[nH]c2ccccc12)[C@@H](C)CC)C(C)C)C(=O)N[C@@H](CCCCN)C(=O)N[C@@H](CCCN=C(N)N)C(=O)N[C@@H](Cc1c[nH]c2ccccc12)C(=O)N[C@@H](CC(C)C)C(=O)N[C@@H](CCCN=C(N)N)C(N)=O [WKRIVRWIKRWLR]
MIC [6]: 8 µM (≈ 15.2 µg/mL)
MIC [7]: 4 µM (≈ 7.58 µg/mL)
MIC [8]: 4 µM (≈ 7.58 µg/mL)
MIC [9]: 8 µM (≈ 15.2 µg/mL)
MIC [10]: 2 µM (≈ 3.79 µg/mL)
MIC [11]: 4 µM (≈ 7.58 µg/mL)
